These results are taken from patent US20220177511A1, “SERIES OF HALOGENATED TETRACYCLIC TRITERPENE DERIVATIVES AND THEIR PREPARATION AND APPLICATION” (SHANGHAI KING-X BIOTECH CO., LTD, priority 2019, published 2022).

Data set [1] is described as follows: Solubility test in water and FaSSIF. Type of data set: physicochemical. To be noted: 37° C., up to 24 hours.
The subject of data set [2] is chronic heart failure mice. Description: Pharmacodynamic comparison of LCZ696 and compound 2 in chronic heart failure mice (echocardiography). In kind it is in vivo. An excerpt:
With EF<50%, chronic heart failure mice were selected.
The mice were detected by cardiac ultrasound after 28 days of administration.

[3] abbreviates: 100 mg/kg, after 28 days of administration.
Where [4] appears, read: Positive control 1 (LCZ696, probably 60 mg/kg), Day 0.
Setting [5] is: Positive control 1 (LCZ696, probably 60 mg/kg), Day 28.
The mark [6] stands for this setting: Positive control 2 (LCZ696, probably 100 mg/kg), Day 0.
Where [7] appears, read: Positive control 2 (LCZ696, probably 100 mg/kg), Day 28.
Setting [8] is: chronic heart failure mice (FIG. 9).

Where two headings read alike, the source gives them in different places.

Turning to `CC(C)(O)[C@@H]1CC[C@@](C)([C@H]2[C@@H](O)C[C@@]3(C)[C@@H]4C[C@H](OC(=O)[C@@H](N)CCCCN)[C@H]5C(C)(C)C(F)(F)CC[C@@]56C[C@@]46CC[C@]23C)O1.Cl.Cl` [Compound 2-26, (S)-6-(((2aR,3R,4S,5aS,5bS,7S,7aR,11aR,12aS)-9,9-difluoro-4-hydroxy-3-((2S,5S)-5-(2-hydroxypropan-2-yl)-2-methyltetrahydrofuran-2-yl)-2a,5a,8,8-tetramethyltetradecahydro-1H,12H-cyclopenta[a]cyclopropa[e]phenanthren-7-yl)oxy)-6-oxohexane-1,5-diaminium Chloride], the Solubility in data set [1] (FaSSIF (pH 6.5)) worked out at 6600 µg/mL; in data set [1] (Water), 2100 µg/mL.

In data set [1] (FaSSIF (pH 6.5)), `Br.CC(C)(O)C1CCC(C)(C2C(O)CC3(C)C4CC(OC(=O)CNC(=O)C(N)CS)C5C(C)(C)C(F)(F)CCC56CC46CCC23C)O1` [Compound 2-32, (R)-1-((2-(((2aR,3R,4S,5aS,5bS,7S,7aR,11aR,12aS)-9,9-difluoro-4-hydroxy-3-((2S,5S)-5-(2-hydroxypropan-2-yl)-2-methyltetrahydrofuran-2-yl)-2a,5a,8,8-tetramethyltetradecahydro-1H,12H-cyclopenta[a]cyclopropa[e]phenanthren-7-yl)oxy)-2-oxoethyl)amino)-3-mercapto-1-oxopropan-2-aminium bromide] had a Solubility of 4960 µg/mL.

Take `Br.CN(CC(=O)O[C@H]1C[C@@H]2[C@]3(CC[C@]4(C)[C@@H]([C@]5(C)CC[C@@H](C(C)(C)O)O5)[C@@H](O)C[C@@]24C)C[C@@]32CCC(F)(F)C(C)(C)[C@H]12)C(=O)[C@H](N)CC(=O)O` [Compound 2-33, (R)-3-carboxy-1-((2-(((2aR,3R,4S,5aS,5bS,7S,7aR,11aR,12aS)-9,9-difluoro-4-hydroxy-3-((2S,5S)-5-(2-hydroxypropan-2-yl)-2-methyltetrahydrofuran-2-yl)-2a,5a,8,8-tetramethyltetradecahydro-1H,12H-cyclopenta[a]cyclopropa[e]phenanthren-7-yl)oxy)-2-oxoethyl)(methyl)amino)-1-oxopropan-2-aminium bromide]: the Solubility was 6800 µg/mL in data set [1] (FaSSIF (pH 6.5)) and 2100 µg/mL in data set [1] (Water).

Take `CC(NC(=O)C(N)CC(N)=O)C(=O)OC1CC2C3(C)CC(O)C(C4(C)CCC(C(C)(C)O)O4)C3(C)CCC23CC32CCC(F)(F)C(C)(C)C12.Cl` [Compound 2-34, (S)-4-amino-1-(((S)-1-(((2aR,3R,4S,5aS,5bS,7S,7aR,11aR,12aS)-9,9-difluoro-4-hydroxy-3-((2S,5S)-5-(2-hydroxypropan-2-yl)-2-methyltetrahydrofuran-2-yl)-2a,5a,8,8-tetramethyltetradecahydro-1H,12H-cyclopenta[a]cyclopropa[e]phenanthren-7-yl)oxy)-1-oxopropan-2-yl)amino)-1,4-di oxobutan-2-aminium chloride]: the Solubility in data set [1] (FaSSIF (pH 6.5)) is 3200 µg/mL; in data set [1] (Water) it was 1180 µg/mL.

Regarding `C[C@@H](N)C(=O)N[C@H](C)C(=O)O[C@H]1C[C@@H]2[C@]3(CC[C@]4(C)[C@@H]([C@]5(C)CC[C@@H](C(C)(C)O)O5)[C@@H](O)C[C@@]24C)C[C@@]32CCC(F)(F)C(C)(C)[C@H]12.I` [Compound 2-35, (R)-1-(((R)-1-(((2aR,3R,4S,5aS,5bS,7S,7aR,11aR,12aS)-9,9-difluoro-4-hydroxy-3-((2 S,5S)-5-(2-hydroxypropan-2-yl)-2-methyltetrahydrofuran-2-yl)-2a,5a,8,8-tetramethyltetradecahydro-1H,12H-cyclopenta[a]cyclopropa[e]phenanthren-7-yl)oxy)-1-oxopropan-2-yl)amino)-1-oxopropan-2-aminium iodide], the Solubility in data set [1] (FaSSIF (pH 6.5)) worked out at 3140 µg/mL; in data set [1] (Water), 1350 µg/mL.

In the case of `CC(C)(O)C1CCC(C)(C2C(O)CC3(C)C4CC(OP(=O)([O-])O)C5C(C)(C)C(F)(F)CCC56CC46CCC23C)O1.[Na+]` [Compound 3-1, Monosodium Mono((2aR,3R,4S,5aS,5bS,7S,7aR,11aR,12aS)-9,9-difluoro-4-hydroxy-3-((2S,5S)-5-(2-hydroxypropan-2-yl)-2-methyltetrahydrofuran-2-yl)-2a,5a,8,8-tetramethyltetradecahydro-1H,12H-cyclopenta[a]cyclopropa[e]phenanthren-7-yl phosphate)], the results for the Solubility in data set [1] (FaSSIF (pH 6.5)) and in data set [1] (Water) were 15800 µg/mL and 11500 µg/mL, respectively.

`CC(C)(O)C1CCC(C)(C2C(O)CC3(C)C4CC(OP(=O)(O)O)C5C(C)(C)C(F)(F)CCC56CC46CCC23C)O1.N` [Compound 3-2, Ammonium (2aR,3R,4S,5aS,5bS,7S,7aR,11aR,12aS)-9,9-difluoro-4-hydroxy-3-((2S,5S)-5-(2-hydroxypropan-2-yl)-2-methyltetrahydrofuran-2-yl)-2a,5a,8,8-tetramethyltetradecahydro-1H,12H-cyclopenta[a]cyclopropa[e]phenanthren-7-yl phosphate]: the figures for the Solubility in data set [1] (FaSSIF (pH 6.5)) and in data set [1] (Water) were 22300 µg/mL and 12600 µg/mL, respectively.

Take `CC(C)(O)[C@@H]1CC[C@@](C)([C@H]2[C@@H](O)C[C@@]3(C)[C@@H]4C[C@H](OP(=O)(O)O)[C@H]5C(C)(C)C(F)(F)CC[C@@]56C[C@@]46CC[C@]23C)O1` [Compound 11, (2aR,3R,4S,5aS,5bS,7S,7aR,11aR,12aS)-9,9-difluoro-4-hydroxy-3-((2S,5S)-5-(2-hydroxypropan-2-yl)-2-methyltetrahydrofuran-2-yl)-2a,5a,8,8-tetramethyltetradecahydro-1H,12H-cyclopenta[a]cyclopropa[e]phenanthren-7-yl dihydrogen phosphate]: the Solubility in data set [1] (thermodynamic from solid, FaSSIF (pH 6.5), read-out: Solubility) is 3200 µg/mL; in data set [1] (thermodynamic from solid, Water, read-out: Solubility), 790 µg/mL.

Take sacubitril valsartan sodium [LCZ696]: in data set [2] (60 mg/kg, after 28 days of administration), the “left ventricular ejection fraction EF % increased by” value is reported as 33.14%. Further, in data set [2] (setting [3]), the “FS %” value is reported as “significantly increased” and the “left ventricular ejection fraction EF % increased by” value was 45.36%. In data set [2] (setting [4]), this compound displayed a CO of 30.83 ± 2.77 mL/min, an EF of 23.49 ± 3.96%, an FS of 9.31 ± 1.8% and an HR of 575.58 ± 11.44 times/min. In data set [2] (setting [5]), the CO came out at 30.17 ± 1.85 mL/min, the EF is 31.27 ± 5.36%, the FS worked out at 12.93 ± 2.66% and the HR worked out at 531.4 ± 19.6 times/min. In data set [2] (setting [6]), this compound gave a CO of 35.4 ± 3.19 mL/min, an EF of 22.89 ± 2.06%, an FS of 9.24 ± 0.86 % and an HR of 553.5 ± 10.76 times/min. In data set [2] (setting [7]), this compound came in with a CO of 39.02 ± 4.26 mL/min, an EF of 34.72 ± 5.06%, an FS of 14.76 ± 2.86% and an HR of 550.17 ± 12.72 times/min. In addition, in data set [2] (setting [8]), the “Cardiac output per minute (CO), day 28 vs day 0 (words)” value is given as “not statistically significant” and the “Heart rate (HR), day 28 vs day 0” value was “no significant change”. In addition, the “EF, day 28 vs day 0 (words)” value in data set [2] (chronic heart failure mice, p<0.0005 (FIG. 8)) was “significantly increased”.
